# Results as given in patent US20120121736A1, “COMPOSITION FOR TREATING GASTRIC ULCER AND A PROCESS THEREOF” (priority 2010, published 2012).
# Key:
# [1] = tested on: Aspirin induced ulcer model; assay: Aspirin induced gastric ulcer model; type: in vivo, rats
# Protocol: EXPERIMENT 2: EFFECT ON ASPIRIN INDUCED GASTRIC ULCER MODEL Method: Gastric ulceration was induced by aspirin according to the method of Djahanguiri (1969). Aspirin (150 mg/Kg.) was administered per orally as a suspension in gum-acacia and the animal was sacrificed 5 hr. after the aspirin treatment and the ulcer index with protection index were calculated.
# [2] = tested on: Ethanol Induced Ulcer Model; assay: Alcohol (ethanol) induced gastric ulcer model; type: in vivo, rats; settings: in respect to the protection of Omeprazole taken as 100%
# Protocol: EXPERIMENT 4: EFFECT ON ALCOHOL INDUCED GASTRIC ULCERS IN RATS Method: 1. Adult rats of either sex were taken; weighing 150-175 grams were fasted for 24 hours with free access to water.
# 2. The test drugs were administered (p. o.) 45 minutes before alcohol administration.
# 3. 1 ml of chilled absolute alcohol was administered (p. o.) to the rats (According to the Wittetal).
# 4. Immediately after 1 hour, the animals were anesthetized, abdomen was cut opened stomach was taken out and incised along the greater curvature to observe the gastric lesions.
# The ulcers are examined under the 5× magnification with the help of magnascope. Absolute ethanol lesions appears as blackish lesions grouped in patches of varying size, usually parallel to the major axis of the stomach.
# 5. The lengths of the lesions are measured and summated to give a total lesion score, then calculated and expressed in percentage.
# [3] = tested on: Cold Restraint Ulcer Model (CRU); assay: Cold Restraint Ulcer (CRU) model; type: in vivo, rats
# Protocol: EXPERIMENT 1: EFFECT ON COLD RESTRAINT ULCERS (CRU) MODEL METHOD: Adult rats of either sex, weighing 150-175 grams are fasted for 24 hours in metallic cages with raised mesh bottoms to prevent coprophagia and were allowed free access to water. The test drugs were administered 45 minutes before immobilizing the animals. The rats were immobilized in the restraint cage and kept at 4° C. in BOD incubator for 2 hours (According to the method of Senay and Levine 1967). The animals were sacrificed immediately after the restraint period. The abdomen was cut opened; stomach was taken out and incised along the greater curvature to observe the gastric lesions with the help of Magnascope (5× magnification) The following arbitrary scoring system was used to grade the severity and intensity of the lesions: 1. Shedding of epithelium=10 2. Petechial and frank hemorrhages=20 3. One or two ulcers=30 4. More than two ulcers=40 5. Perforated ulcers=50 The presence of any of these lesions was considered as a positive ulcerogenic response which has been shown as percentage of rats showing gastric lesions. The severity of ulcers is expressed in terms of ulcer index, which is the mean score of gastric lesions of all the rats in a group. The term Ulcer Index is defined as: Ulcer Index (U. I.)=Us+Up×10−1 where Us=Mean severity of ulcer score and Up=Percentage of animals with Ulcer incidences. The percentage protection is calculated as follows: Percentage protection=(C−T/C)×100. where C=Number of animals showing ulcer response in control group and T=Number of animals showing ulcer response in test group.
# [4] = tested on: histamine induced duodenal ulcer; assay: Histamine induced duodenal ulcer model; type: in vivo, Guinea pig
# Protocol: EXPERIMENT 3: EFFECT ON HISTAMINE INDUCED ULCER MODEL Method:
# 1. Animals were fasted for 24 hours with access to water.
# 2. The drug was given orally 1 hour prior to the histamine administration.
# 3. Histamine was administered in a dose of 0.25 mg/Kg, i. m. at 30 minutes interval for 7 times and it induced 100% duodenal ulceration in guinea pig (According to the method of Watt and Eagleton 1964).
# 4. The animals were sacrificed after half an hour of last injection under ether anesthesia.
# 5. The stomach along with duodenum were removed washed thoroughly and examined for the lesions. Ulcer index and protection index were calculated.
# [5] = tested on: pyloric ligation induced Ulcer; assay: Pyloric ligation induced ulcer model; type: in vivo, rats; settings: in respect to the protection of Omeprazole taken as 100%
# Protocol: EXPERIMENT 5: EFFECT ON PYLORIC LIGATION INDUCED ULCER MODEL Method: 1. Animals were fasted for 24 hours in the raised mesh bottom cages to prevent coprophagia and were allowed free access to water. 2. The control group of rats was feed with the vehicle and the experimental groups with their respective drugs 45 minutes prior to the ligation. 3. The animal was anesthetized, abdomen was cut opened under xiphoid process, and the pyloric portion of the stomach was slightly lifted and ligated avoiding any damage to the adjacent blood vessels (According to the method of Shay et al. 1945). 4. The animals were stitched and kept for 4 hours with free access to water. 5. After 4 hours the animals were sacrificed under ether anesthesia and the stomach was dissected out incised along the greater curvature. 6. The stomach was washed thoroughly and the ulcer index was scored as per in other ulcer models.
# [6] = 10 mg/Kg, standard, protection taken as 100%
compound,measurement,setting,value
COc1ccc2[nH]c([S+]([O-])Cc3ncc(C)c(OC)c3C)nc2c1 (stereo not drawn) [Omeprazole],PERCENTAGE PROTECTION,[1]; [6],100%
same,Ulcer severity (type of lesions) Scores (No. of rats showing lesions/No. of rats tested) 10,"[1]; 10 = Shedding of epithelium, Omeprazole 20 mg/Kg, Aspirin 150 mg/Kg p.o.",2/6
same,Ulcer severity (type of lesions) Scores (No. of rats showing lesions/No. of rats tested) 20,"[1]; 20 = Petechial and frank hemorrhages, Omeprazole 20 mg/Kg, Aspirin 150 mg/Kg p.o.",1/6
same,Percentage of ulcer incidence (No. of rats showing ulcer/total No. of rats used),[1]; Omeprazole 20 mg/Kg,50 (3/6) %
same,PROTECTION (Percentage protection),[2],100.0%
same,PERCENTAGE PROTECTION,[3]; [6],100%
same,Ulcer severity (type of lesions) Scores (No. of rats showing lesions/No. of rats tested) 10,"[3]; 10 = Shedding of epithelium, Omeprazole 10 mg/Kg, p.o.",3/10
same,Ulcer severity (type of lesions) Scores (No. of rats showing lesions/No. of rats tested) 20,"[3]; 20 = Petechial and frank hemorrhages, Omeprazole 10 mg/Kg, p.o.",2/10
same,Volume of gastric fluid,"[4]; Omeprazole 10 mg/Kg, p.o.",1.0 ± 0.2 mL
same,PERCENTAGE PROTECTION,[4]; in respect to the protection of Omeprazole taken as 100%,100%
same,Ulcer severity (type of lesions) Scores (No. of Guinea pig showing lesions/No. of Guinea pig tested) 20,"[4]; score 20, Omeprazole 10 mg/Kg, p.o.",1/3
same,PROTECTION (Percentage protection),[5],100%
